# Results taken from the supplement of paper PMC10307832.
# Assays:
# Assay in all cases: relative viability (nuclei count vs DMSO), 5 days (fraction); higher = more cells survive
# 201T = test system: 201T
# Outline: (§1)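 Medians of duplicate plates are given as relative viability. That measure is the nuclei count in treated wells divided by the count in vehicle wells. Counts were taken on 4× images of lung cancer cell lines in 1536-well plates, 5 days after pin-tool dosing the day after seeding with one drug alone or a fixed anchor-drug dose plus five library-drug doses (not always all listed) in √10 steps.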
# COR-L23 = test system: COR-L23
# Outline: as §1
# H3255 = test system: H3255
# Outline: as §1
# HARA = test system: HARA
# Outline: as §1
# HCC-366 = test system: HCC-366
# Outline: as §1
# HCC-78 = test system: HCC-78
# Outline: as §1
# LU99A = test system: LU99A
# Outline: as §1
# NCI-H1650 = test system: NCI-H1650
# Outline: as §1
# NCI-H1651 = test system: NCI-H1651
# Outline: as §1
# NCI-H1755 = test system: NCI-H1755
# Outline: as §1
# NCI-H1793 = test system: NCI-H1793
# Outline: as §1
# NCI-H2085 = test system: NCI-H2085
# Outline: as §1
# NCI-H2087 = test system: NCI-H2087
# Outline: as §1
# NCI-H23 = test system: NCI-H23
# Outline: as §1
# NCI-H3122 = test system: NCI-H3122
# Outline: as §1
# NCI-H322M = test system: NCI-H322M
# Outline: as §1
# NCI-H358 = test system: NCI-H358
# Outline: as §1
# NCI-H460 = test system: NCI-H460
# Outline: as §1
# NCI-H522 = test system: NCI-H522
# Outline: as §1
# NCI-H596 = test system: NCI-H596
# Outline: as §1
# NCI-H650 = test system: NCI-H650
# Outline: as §1
# PC-3 [JPC-3] = test system: PC-3 [JPC-3]
# Outline: as §1
# SK-LU-1 = test system: SK-LU-1
# Outline: as §1
smiles,measurement,setting,value
Cc1csc(=NC2CCCCC2)n1/N=C/c1ccc(O)c(O)c1O [MIM1] + Nc1ncn([C@H]2C[C@H](O)[C@@H](CO)O2)c(=O)n1 [Decitabine] (partner 2 µM),relative viability,201T; first compound 0.2 µM,0.849
same,relative viability,201T; first compound 0.6325 µM,0.887
same,relative viability,201T; first compound 2 µM,0.812
same,relative viability,201T; first compound 6.325 µM,0.831
same,relative viability,201T; first compound 20 µM,0.533
same,relative viability,COR-L23; first compound 0.2 µM,0.405
same,relative viability,COR-L23; first compound 0.6325 µM,0.475
same,relative viability,COR-L23; first compound 2 µM,0.418
same,relative viability,COR-L23; first compound 6.325 µM,0.346
same,relative viability,COR-L23; first compound 20 µM,0.225
same,relative viability,H3255; first compound 0.2 µM,0.562
same,relative viability,H3255; first compound 0.6325 µM,0.657
same,relative viability,H3255; first compound 2 µM,0.527
same,relative viability,H3255; first compound 6.325 µM,0.486
same,relative viability,H3255; first compound 20 µM,0.242
same,relative viability,HARA; first compound 0.2 µM,0.529
same,relative viability,HARA; first compound 0.6325 µM,0.722
same,relative viability,HARA; first compound 2 µM,0.697
same,relative viability,HARA; first compound 6.325 µM,0.475
same,relative viability,HARA; first compound 20 µM,0.204
same,relative viability,HCC-366; first compound 0.2 µM,0.295
same,relative viability,HCC-366; first compound 2 µM,0.354
same,relative viability,HCC-366; first compound 6.325 µM,0.176
same,relative viability,HCC-366; first compound 20 µM,0.0249
same,relative viability,HCC-78; first compound 0.2 µM,0.784
same,relative viability,HCC-78; first compound 2 µM,0.728
same,relative viability,HCC-78; first compound 6.325 µM,0.502
same,relative viability,HCC-78; first compound 20 µM,0.426
same,relative viability,LU99A; first compound 0.2 µM,0.87
same,relative viability,LU99A; first compound 0.6325 µM,0.845
same,relative viability,LU99A; first compound 2 µM,0.927
same,relative viability,LU99A; first compound 6.325 µM,0.889
same,relative viability,LU99A; first compound 20 µM,0.393
same,relative viability,NCI-H1650; first compound 0.2 µM,0.428
same,relative viability,NCI-H1650; first compound 0.6325 µM,0.448
same,relative viability,NCI-H1650; first compound 2 µM,0.348
same,relative viability,NCI-H1650; first compound 6.325 µM,0.199
same,relative viability,NCI-H1650; first compound 20 µM,0.135
same,relative viability,NCI-H1651; first compound 0.2 µM,0.608
same,relative viability,NCI-H1651; first compound 0.6325 µM,0.524
same,relative viability,NCI-H1651; first compound 2 µM,0.56
same,relative viability,NCI-H1651; first compound 6.325 µM,0.509
same,relative viability,NCI-H1651; first compound 20 µM,0.306
same,relative viability,NCI-H1755; first compound 0.2 µM,0.724
same,relative viability,NCI-H1755; first compound 0.6325 µM,0.694
same,relative viability,NCI-H1755; first compound 2 µM,0.727
same,relative viability,NCI-H1755; first compound 6.325 µM,0.657
same,relative viability,NCI-H1755; first compound 20 µM,0.549
same,relative viability,NCI-H1793; first compound 0.2 µM,0.507
same,relative viability,NCI-H1793; first compound 2 µM,0.518
same,relative viability,NCI-H1793; first compound 6.325 µM,0.479
same,relative viability,NCI-H1793; first compound 20 µM,0.495
same,relative viability,NCI-H2085; first compound 0.2 µM,0.539
same,relative viability,NCI-H2085; first compound 0.6325 µM,0.522
same,relative viability,NCI-H2085; first compound 2 µM,0.516
same,relative viability,NCI-H2085; first compound 6.325 µM,0.491
same,relative viability,NCI-H2085; first compound 20 µM,0.563
same,relative viability,NCI-H2087; first compound 0.2 µM,0.286
same,relative viability,NCI-H2087; first compound 0.6325 µM,0.273
same,relative viability,NCI-H2087; first compound 2 µM,0.231
same,relative viability,NCI-H2087; first compound 6.325 µM,0.327
same,relative viability,NCI-H2087; first compound 20 µM,0.246
same,relative viability,NCI-H23; first compound 0.2 µM,0.336
same,relative viability,NCI-H23; first compound 0.6325 µM,0.322
same,relative viability,NCI-H23; first compound 2 µM,0.288
same,relative viability,NCI-H23; first compound 6.325 µM,0.281
same,relative viability,NCI-H23; first compound 20 µM,0.169
same,relative viability,NCI-H3122; first compound 0.2 µM,0.449
same,relative viability,NCI-H3122; first compound 0.6325 µM,0.507
same,relative viability,NCI-H3122; first compound 2 µM,0.487
same,relative viability,NCI-H3122; first compound 6.325 µM,0.407
same,relative viability,NCI-H3122; first compound 20 µM,0.411
same,relative viability,NCI-H322M; first compound 0.2 µM,0.622
same,relative viability,NCI-H322M; first compound 0.6325 µM,0.74
same,relative viability,NCI-H322M; first compound 2 µM,0.736
same,relative viability,NCI-H322M; first compound 6.325 µM,0.642
same,relative viability,NCI-H322M; first compound 20 µM,0.653
same,relative viability,NCI-H358; first compound 0.2 µM,0.212
same,relative viability,NCI-H358; first compound 0.6325 µM,0.224
same,relative viability,NCI-H358; first compound 2 µM,0.216
same,relative viability,NCI-H358; first compound 6.325 µM,0.148
same,relative viability,NCI-H358; first compound 20 µM,0.119
same,relative viability,NCI-H460; first compound 0.2 µM,0.438
same,relative viability,NCI-H460; first compound 0.6325 µM,0.479
same,relative viability,NCI-H460; first compound 2 µM,0.43
same,relative viability,NCI-H460; first compound 6.325 µM,0.182
same,relative viability,NCI-H460; first compound 20 µM,0.0456
same,relative viability,NCI-H522; first compound 0.2 µM,0.625
same,relative viability,NCI-H522; first compound 0.6325 µM,0.632
same,relative viability,NCI-H522; first compound 2 µM,0.711
same,relative viability,NCI-H522; first compound 6.325 µM,0.691
same,relative viability,NCI-H522; first compound 20 µM,0.63
same,relative viability,NCI-H596; first compound 0.2 µM,1.09
same,relative viability,NCI-H596; first compound 0.6325 µM,1.1
same,relative viability,NCI-H596; first compound 2 µM,0.831
same,relative viability,NCI-H596; first compound 6.325 µM,0.84
same,relative viability,NCI-H596; first compound 20 µM,0.841
same,relative viability,NCI-H650; first compound 0.2 µM,0.294
same,relative viability,NCI-H650; first compound 0.6325 µM,0.342
same,relative viability,NCI-H650; first compound 2 µM,0.345
same,relative viability,NCI-H650; first compound 6.325 µM,0.323
same,relative viability,NCI-H650; first compound 20 µM,0.206
same,relative viability,PC-3 [JPC-3]; first compound 0.2 µM,0.816
same,relative viability,PC-3 [JPC-3]; first compound 0.6325 µM,0.894
same,relative viability,PC-3 [JPC-3]; first compound 2 µM,0.752
same,relative viability,PC-3 [JPC-3]; first compound 6.325 µM,0.774
same,relative viability,PC-3 [JPC-3]; first compound 20 µM,0.609
same,relative viability,SK-LU-1; first compound 0.2 µM,0.686
same,relative viability,SK-LU-1; first compound 0.6325 µM,0.727
same,relative viability,SK-LU-1; first compound 2 µM,0.708
same,relative viability,SK-LU-1; first compound 6.325 µM,0.65
same,relative viability,SK-LU-1; first compound 20 µM,0.351
